Assay results published in patent publication US8658698B2, “Insecticidal compounds” (Syngenta Crop Protection, LLC, priority 2008, dated 2014).

Tests used:
Format in all cases: in vivo
[1] = test system: Plutella xylostella (Diamond Back Moth); experiment: Plutella xylostella larvae test on artificial diet; conditions: same protocol, 200 ppm (18 ppm in well), 6 days
Method: (§1) This Example illustrates the pesticidal/insecticidal properties of compounds of formula (I). The tests were performed as follows:
(§2) Cotton leaf discs were placed on agar in a 24-well microtiter plate and sprayed with test solutions at an application rate of 200 ppm. After drying, the leaf discs were infested with 5 L1 larvae. The samples were checked for mortality, feeding behavior, and growth regulation 3 days after treatment (DAT). The following compounds gave at least 80% control of Spodoptera littoralis: A2, A6, A8, A9, A10, A11, A13, A15, A19, A20, A22, A25, A27, A29, A31, A33, A35, A41, A50, A55, A60, A65, A73, A88, A92, and A94. Heliothis virescens (Tobacco Budworm): Eggs (0-24 h old) were placed in 24-well microtiter plate on artificial diet and treated with test solutions at an application rate of 200 ppm (concentration in well 18 ppm) by pipetting. After an incubation period of 4 days, samples were checked for egg mortality, larval mortality and growth regulation. The following compounds gave at least 80% control of Heliothis virescens: A2, A3, A4, A5, A6, A7, A9, A10, A11, A13, A15, A19, A20, A22, A25, A26, A27, A28, A29, A31, A32, A33, A35, A38, A40, A41, A43, A46, A55, A59, A60, A65, A69, A70, A71, A73, A74, A75, A77, A79, A80, A82, A86, A88, A89, A90, A92, A94, A96, A98, and A100. Plutella xylostella (Diamond Back Moth): A 24-well microtiter plate (MTP) with artificial diet was treated with test solutions at an application rate of 200 ppm (concentration in well 18 ppm) by pipetting. After drying, the MTP's were infested with L2 larvae (7-12 per well). After an incubation period of 6 days, samples were checked for larval mortality and growth regulation. The following compounds gave at least 80% control of Plutella xylostella: A3, A4, A5, A6, A7, A8, A10, A15, A16, A18, A19, A20, A22, A25, A26, A27, A28, A29, A31, A32, A33, A35, A38, A40, A55, A69, A71, A73, A74, A75, A76, A77, A78, A80, A82, A86, A87, A88, A89, A92, A94, A96, A97, A98, and A99. Diabrotica balteata (Corn Root Worm): A 24-well microtiter plate (MTP) with artificial diet was treated with test solutions at an application rate of 200 ppm (concentration in well 18 ppm) by pipetting. After drying, the MTP's were infested with larvae (L2) (6-10 per well). After an incubation period of 5 days, samples were checked for larval mortality, and growth regulation. The following compounds gave at least 80% control of Diabrotica balteata: A5, A6, A7, A14, A15, A18, A24, A35, A53, A55, A70, A71, A75, A79, A84, A85, A88, A92, A93, A95, A96, A97, A98, A99, A100, A101, A102, A103, and A104. Myzus persicae (Green Peach Aphid): Each well of a 24-well microtiter plate is filled with 0.6 ml 30% sucrose solution, containing 12.5 ppm of the test compounds. The wells are covered with streched parafilm and infested with a mixed population of Myzus persicae. After an incubation period of 6 days, samples are checked for mortality (feeding activity). The following compounds gave at least 80% control of Myzus persicae: A4, A6, A10, A11, A15, A19, A20, A24, A27, A29, A33, A34, A36, A37, A39, A40, A41, A42, A43, A44, A45, A46, A47, A48, A49, A55, A60, and A82. Tetranychus urticae (Two-Spotted Spider Mite): Bean leaf discs on agar in 24-well microtiter plates were sprayed with test solutions at an application rate of 200 ppm. After drying, the leaf discs are infested with mite populations of mixed ages. 8 days later, discs are checked for egg mortality, larval mortality, and adult mortality. The following compounds gave at least 80% control of Tetranychus urticae: A6, A11, A15, A19, A20, A22, A26, A35, A58, and A64.

[2] = test system: Spodoptera littoralis (Egyptian Cotton Leafworm); experiment: Spodoptera littoralis cotton leaf disc spray test; conditions: same protocol, 200 ppm, 3 DAT
Method: as §1
Spodoptera littoralis (Egyptian Cotton Leafworm)
as §2

[3] = test system: Heliothis virescens (Tobacco Budworm); experiment: Heliothis virescens egg test on artificial diet; conditions: same protocol, 200 ppm (18 ppm in well), 4 days
Method: as §1, §2

[4] = test system: Myzus persicae (Green Peach Aphid); experiment: Myzus persicae sucrose solution feeding test; conditions: same protocol, 12.5 ppm, 6 days
Method: as §1, §2

[5] = test system: Diabrotica balteata (Corn Root Worm); experiment: Diabrotica balteata larvae test on artificial diet; conditions: same protocol, 200 ppm (18 ppm in well), 5 days
Method: as §1, §2

[6] = test system: Tetranychus urticae (Two-Spotted Spider Mite); experiment: Tetranychus urticae bean leaf disc spray test; conditions: same protocol, 200 ppm, 8 days
Method: as §1, §2

Measured: effect on mortality, feeding behavior, or growth regulation

CCc1cc(C(F)(C(F)(F)F)C(F)(F)C(F)(F)F)cc(C)c1NC(=O)c1ccc(C(=O)NC2CC(C)(C)N(C)C(C)(C)C2)c(C)c1 (stereo not drawn) [A72]
no or little effect: [1] | [2] | [3] | [4] | [5] | [6]

CCc1cc(C(F)(C(F)(F)F)C(F)(F)C(F)(F)F)cc(C)c1NC(=O)c1ccc(C(=O)NCc2ccc(C(C)(C)C)cc2)c(C)c1 (stereo not drawn) [A81]
no or little effect: [1] | [2] | [3] | [4] | [5] | [6]

CCc1cc(C(F)(C(F)(F)F)C(F)(F)C(F)(F)F)cc(C)c1NC(=O)c1ccc(C(=O)NCc2ccc(Br)cc2F)c(C)c1 (stereo not drawn) [A83]
no or little effect: [1] | [2] | [3] | [4] | [5] | [6]

CCc1cc(C(F)(C(F)(F)F)C(F)(F)C(F)(F)F)cc(C)c1NC(=O)c1ccc(C(=O)NCc2ccc(C)c(C)c2)c(C)c1 (stereo not drawn) [A91]
no or little effect: [1] | [2] | [3] | [4] | [5] | [6]
